From paper PMC11257079 (Environmental science and pollution research international, 2024)
Values after ≈ are worked out from the molar mass of the structure shown. Read-outs that look alike come from different tables or passages of the source.

How the values were obtained:
[1] = tested on: Lemna minor; assay: whole plant or invertebrate; format: in vivo; conditions: for EC50 / inhibition at 1.3 µM: Lemna minor, 168 h
[2] = tested on: Caenorhabditis elegans; assay: whole plant or invertebrate; format: in vivo; conditions: for EC50: Caenorhabditis elegans, 48 h
[3] = ref PubChem, NIH; cited from earlier work
[4] = tested on: Hydra vulgaris; assay: Hydra vulgaris assay; format: in vivo; conditions: 92 h, read-out: Morphology EC50
[5] = at neutral pH and 20–25°C; ref PubChem, NIH; cited from earlier work
[6] = read-out: Chlorophyll Content EC50
[7] = 168 hour (7 day), 95% confidence interval in brackets
[8] = 48 hour, 95% confidence interval in brackets
[9] = 168 hour (7 day), 95% confidence interval in brackets, listed as pentachlorophenol

| SMILES | EC50 [1, 6] | EC50 ([1]; read-out: Frond Number EC50) | EC50 ([1]; read-out: Surface Area EC50) | EC50 ([2]; read-out: Body Length EC50) | EC50 ([2]; read-out: Nose Touch EC50) | EC50 ([2]; read-out: Survival EC50) | Chlorophyll Content EC10 [1, 7] | Frond Number EC10 [1, 7] | Surface Area EC10 [1, 7] | LogP [3] | EC50 [4] | Body Length EC10 [2, 8] | Nose Touch EC10 [2, 8] | Survival EC10 [2, 8] | Solubility in water [5] | also measured |
| --- | --- | --- | --- | --- | --- | --- | --- | --- | --- | --- | --- | --- | --- | --- | --- | --- |
| Oc1c(Cl)cc(Cl)cc1Cl [2,4,6-trichlorophenol] | 4 µM | 3.6 µM | 3.5 µM | 180 µM | 250 µM | 230 µM | – | – | – | – | – | – | – | – | – | inhibition at 1.3 µM ([1]; read-out: Inhibition of frond number): -3 ± 7%; inhibition at 1.3 µM ([1]; read-out: Inhibition of surface area): 5.8 ± 0.9%; Chlorophyll Content EC10 ([1]; in vivo): 0.0011 (0.0003–0.0018) mM; Decrease in chlorophyll content ([1]; in vivo): 15 ± 3%; Frond Number EC10 ([1]; in vivo): 0.0019 (0.0015–0.0023) mM; Surface Area EC10 ([1]; in vivo): 0.0016 (0.0011–0.0021) mM; Body Length EC10 ([2]; in vivo): 0.12 (0.094–0.14) mM; Decrease in nematode survival ([2]; in vivo): 2.6 ± 4%; Impairment to behavior (nose touch response) ([2]; in vivo): 16 ± 3%; Impairment to body length ([2]; in vivo): 5.9 ± 4%; Nose Touch EC10 ([2]; in vivo): 0.12 (0.11–0.15) mM; Survival EC10 ([2]; in vivo): 0.19 (0.15–0.23) mM |
| CNC(=O)O/N=C/C(C)(C)SC [Aldicarb] | 110 µM | 1260 µM | 11000 µM | 250 µM | 9600 µM | 650 µM | 0.096 (0.017–0.17) mM | 0.40 (0.28–0.52) mM | 1.0 (0–3.9) mM | 1.1 | 4.6 µM | 0.22 (0–0.62) mM | 0.27 (0–1.6) mM | 0.47 (0.29–0.65) mM | – | – |
| CCOP(=S)(OCC)Oc1cc(C)nc(C(C)C)n1 [Diazinon] | 260 µM | 330 µM | 570 µM | 77 µM | 120 µM | 71 µM | 0.016 (0–0.071) mM | 0.030 (0–0.140) mM | 0.031 (0–0.12) mM | – | 55 µM | 0.016 (0.0083–0.024) mM | 0.080 (0.068–0.093) mM | 0.057 (0.052–0.061) mM | – | Chlorophyll Content EC10 ([1]; 168 hour (7 day), 95% confidence interval in brackets, listed as diazinon): 0.0016 mM |
| O=C(O)CNCP(=O)(O)O [Glyphosate] | 94 µM | 57 µM | 60 µM | 250 µM | 1000 µM | 360 µM | 0.054 (0–0.30) mM | 0.034 (0.022–0.046) mM | 0.053 (0.036–0.071) mM | −4.6 | 160 µM | 0.22 (0.13–0.31) mM | 0.15 NA mM | 0.21 NA mM | 1050 µg/mL (≈ 6.21 mM) | – |
| Cl[C@H]1[C@H](Cl)[C@@H](Cl)[C@@H](Cl)[C@H](Cl)[C@H]1Cl [Lindane] | 6.1 µM | 7.3 µM | 11 µM | 540 µM | 140 µM | 38 µM | 0.0039 (0.0016–0.0061) mM | 0.0048 (0.0036–0.0060) mM | 0.0040 (0.0021–0.0059) mM | 3.8 | 22 µM | 0.048 (0–0.21) mM | 0.020 (0–0.051) mM | 0.055 (0–0.45) mM | 2 µg/mL (≈ 0.00688 mM) | Chlorophyll Content EC10 ([1]; 168 hour (7 day), 95% confidence interval in brackets, listed as lindane): 0.0039 mM |
| CON(C)C(=O)Nc1ccc(Cl)c(Cl)c1 [Linuron] | 0.15 µM | 0.18 µM | 0.18 µM | 220 µM | 150 µM | 650 µM | 0.00010 (0.000069–0.00013) mM | 0.00015 (0.00013–0.00016) mM | 0.00014 (0.00013–0.00016) mM | – | 63 µM | 0.036 (0.0030–0.070) mM | 0.056 (0.029–0.083) mM | 0.29 (0–1.3) mM | – | Chlorophyll Content EC10 ([1]; 168 hour (7 day), 95% confidence interval in brackets, listed as linuron): 0.00010 mM |
| C[n+]1ccc(-c2cc[n+](C)cc2)cc1 [Paraquat] | 0.16 µM | 0.12 µM | 0.11 µM | 1700 µM | 860 µM | 50 µM | 0.00014 (0.00012–0.00016) mM | 0.000090 (0.000080–0.000010) mM | 0.000098 (0.000060–0.000013) mM | 1.7 | 44 µM | 0.086 (0–0.63) mM | 0.50 (0–1.3) mM | 0.044 (0–0.21) mM | >620000 µg/mL | – |
| Oc1c(Cl)c(Cl)c(Cl)c(Cl)c1Cl [Pentachlorophenol] | 2.3 µM | 8.4 µM | 88 µM | 180 µM | 190 µM | 170 µM | 0.00073 (0.00027–0.0012) mM | 0.0053 (0.0037–0.0070) mM | 0.0086 (0–0.031) mM | – | 1.9 µM | 0.21 (0–0.98) mM | 0.17 NA mM | 0.11 (0.099–0.13) mM | – | Chlorophyll Content EC10 [1, 9]: 0.00073 mM; Frond Number EC10 [1, 9]: 0.0053 mM; Surface Area EC10 [1, 9]: 0.0086 mM; Body Length EC10 ([2]; 48 hour, 95% confidence interval in brackets, listed as pentachlorophenol): 0.21 mM |
| CCCN(CCC)c1c([N+](=O)[O-])cc(C(F)(F)F)cc1[N+](=O)[O-] [Trifluralin] | 4.6 µM | 1.8 µM | 1.4 µM | 180 µM | 220 µM | 140 µM | 0.000042 (0–0.00015) mM | 0.00037 (0–0.00075) mM | 0.00062 (0–0.0014) mM | – | 10 µM | 0.19 (0–1.2) mM | 0.19 (0–0.59) mM | 0.13 (0.13–0.14) mM | – | Chlorophyll Content EC10 ([1]; 168 hour (7 day), 95% confidence interval in brackets, listed as trifluralin): 0.000042 mM; Nose Touch EC10 ([2]; 48 hour, 95% confidence interval in brackets, listed as trifluralin): 0.19 mM |
